US5955616A, “Pyrrolidine derivatives having phospholipase A2 inhibitory activity” (Shionogi & Co., Ltd., priority 1995, dated 1999)

These compounds were tested against T1, cPLA2 (Homo sapiens, UniProt P47712) (assay: cPLA2 Inhibitory activity (release of radiolabelled fatty acid from liposomes)). Settings: 50 mM HEPES pH 7.4, 1 mM CaCl2, 2.5 μM radio-labeled phosphatidylcholine, 15 min at 37° C; read-out: cPLA2 Inhibition Activity IC50.
T1 sequence (P47712 1-749): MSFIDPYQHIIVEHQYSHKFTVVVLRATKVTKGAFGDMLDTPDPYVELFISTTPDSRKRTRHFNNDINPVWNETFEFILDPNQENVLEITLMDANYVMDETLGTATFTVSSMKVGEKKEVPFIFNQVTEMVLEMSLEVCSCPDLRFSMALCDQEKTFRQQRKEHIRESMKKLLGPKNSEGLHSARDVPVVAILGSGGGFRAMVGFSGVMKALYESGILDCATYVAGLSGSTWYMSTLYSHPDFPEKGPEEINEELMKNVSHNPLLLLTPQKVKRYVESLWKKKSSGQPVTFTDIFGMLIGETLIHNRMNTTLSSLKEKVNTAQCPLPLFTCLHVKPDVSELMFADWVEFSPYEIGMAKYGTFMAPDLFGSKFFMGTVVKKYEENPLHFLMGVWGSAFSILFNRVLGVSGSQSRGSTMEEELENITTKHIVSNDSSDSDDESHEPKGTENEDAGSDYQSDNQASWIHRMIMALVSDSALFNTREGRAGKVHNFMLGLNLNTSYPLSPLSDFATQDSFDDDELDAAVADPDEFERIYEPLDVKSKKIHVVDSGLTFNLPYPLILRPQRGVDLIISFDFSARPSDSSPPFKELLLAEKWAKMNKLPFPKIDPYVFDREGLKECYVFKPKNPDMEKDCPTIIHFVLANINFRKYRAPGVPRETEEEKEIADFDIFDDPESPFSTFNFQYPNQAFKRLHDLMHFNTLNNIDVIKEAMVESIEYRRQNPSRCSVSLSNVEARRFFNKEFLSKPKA
Assay type: biochemical
Experimental: Experiment 1 cPLA2 Inhibitory activity
The compounds of the present invention was tested for the cPLA2 inhibitory activity by a method known in a literature (R. M. Kramer, E. F. Roberts, J. Manetta and J. E. Putnam, J. Biol. Chem., 268(8), 5268-5272 ([…])), as outlined below.
As a substrate, liposomes which contain 1-palmitoyl-2-[^14 C]-arachidonoyl-sn-glycero-3-phosphocholine and sn-1,2-dioleoylglycerol at the ratio of 2:1 and have treated ultrasonically were used. The substrate was added to a 50 mM HEPES buffer (pH 7.4) (200 μl) containing 1 mM CaCl2, 2 mM dithiothreitol, 150 mM NaCl, 0.1 mg/ml BSA so as to make the concentration of radio-labeled phosphatidylcholine 2.5 μM. To the solution was added a compound of the present invention in DMSO (10 μl) to obtain reaction solutions each containing the test compound at 250 μM, 50 μM, 10 μm, 2 μM, and 0.4 μM. The reaction was allowed to start by adding an enzyme (cPLA2) (4 ng) and continued for 15 min at 37° C.
The amount of fatty acids released by the reaction was measured on a liquid scintillation counter. Control was obtained by conducting the experiment in the same manner except that a compound of the present invention was not added. The inhibitory activity was expressed as percent (%) to the control value, which was used for the calculation of the concentration required for 50% inhibition (IC50, μM).

SMILES	IC50 [µM]
O=C1NC(=S)SC1=Cc1ccc(NC(=O)[C@@H]2C[C@H](SCc3ccccc3)CN2C(=O)c2ccccc2)cc1 [Compound A-2]	7.2
Cc1cc(C)c(CS[C@H]2C[C@@H](C(=O)Nc3ccc(C=C4SC(=O)NC4=O)cc3)N(C(=O)c3ccccc3)C2)c(C)c1 [Compound A-10]	3.8
O=CN1C[C@@H](SCc2ccccc2)C[C@H]1C(=O)Nc1ccc(C=C2SC(=S)NC2=O)cc1 [Compound A-13]	20
CC(=O)N1C[C@@H](SCc2ccccc2)C[C@H]1C(=O)Nc1ccc(C=C2SC(=S)NC2=O)cc1 [Compound A-14]	18
CS[C@H]1C[C@@H](C(=O)Nc2ccc(C=C3SC(=S)NC3=O)cc2)N(C(=O)c2ccc(C(F)(F)F)cc2)C1 [Compound A-15]	15
O=C1NC(=S)SC1=Cc1ccc(NC(=O)[C@@H]2C[C@H](SCc3ccccc3)CN2)cc1 [Compound A-18]	16
CCCCCCCCCCCCCC(=O)N1C[C@@H](SC)C[C@H]1C(=O)Nc1ccc(C=C2SC(=S)NC2=O)cc1 [Compound A-19]	4.3
CS[C@H]1C[C@@H](C(=O)Nc2ccc(C=C3SC(=S)NC3=O)cc2)N(C(=O)CCc2ccccc2)C1 [Compound A-22]	21
CCCCS(=O)(=O)N1C[C@@H](SCc2ccccc2)C[C@H]1C(=O)Nc1ccc(C=C2SC(=S)NC2=O)cc1 [Compound A-31]	4.8
CN(C)S(=O)(=O)N1C[C@@H](SCc2ccccc2)C[C@H]1C(=O)Nc1ccc(C=C2SC(=S)NC2=O)cc1 [Compound A-32]	4.8
CC(C)S(=O)(=O)N1C[C@@H](SCc2ccccc2)C[C@H]1C(=O)Nc1ccc(C=C2SC(=S)NC2=O)cc1 [Compound A-33]	6.4
CS[C@H]1C[C@@H](C(=O)Nc2ccc(/C=C3\SC(=S)NC3=O)cc2)N(S(=O)(=O)c2ccc(Br)cc2)C1 [Compound A-34]	6.3
CS[C@H]1C[C@@H](C(=O)Nc2ccc(/C=C3\SC(=O)NC3=O)cc2)N(S(=O)(=O)c2ccc(Br)cc2)C1 [Compound A-35]	1.9
O=C1NC(=S)S/C1=C\c1ccc(NC(=O)[C@@H]2C[C@H](SCc3ccccc3)CN2S(=O)(=O)N2CCOCC2)cc1 [Compound A-36]	14
CS[C@H]1C[C@@H](C(=O)Nc2ccc(/C=C3\SC(=S)NC3=O)cc2)N(S(=O)(=O)c2ccc(Cc3ccccc3)cc2)C1 [Compound A-47]	6
CS[C@H]1C[C@@H](C(=O)Nc2ccc(/C=C3\SC(=S)NC3=O)cc2)N(S(=O)(=O)c2ccc(N(C)C)cc2)C1 [Compound A-49]	17
CS[C@H]1C[C@@H](C(=O)Nc2ccc(/C=C3\SC(=O)NC3=O)cc2)N(S(=O)(=O)c2ccc3ccccc3c2)C1 [Compound A-50]	12
O=C1NC(=S)S/C1=C\c1ccc(NC(=O)[C@@H]2C[C@H](SCc3ccccc3)CN2S(=O)(=O)c2cccc3cccnc23)cc1 [Compound A-51]	6.3
O=C1NC(=S)S/C1=C\c1ccc(NC(=O)[C@@H]2C[C@H](SCc3ccccc3)CN2S(=O)(=O)c2ccc(N=Nc3ccccc3)cc2)cc1 [Compound A-57]	4.7
CC(=O)Nc1nc(C)c(S(=O)(=O)N2C[C@@H](SCc3ccccc3)C[C@H]2C(=O)Nc2ccc(/C=C3\SC(=S)NC3=O)cc2)s1 [Compound A-59]	8.6
O=C1NC(=S)O/C1=C\c1ccc(NC(=O)[C@@H]2C[C@H](SC(c3ccccc3)(c3ccccc3)c3ccccc3)CN2S(=O)(=O)c2ccc(-c3ccccc3)cc2)cc1 [Compound A-63]	3.2
CC(C)(C)[Si](C)(C)N1C(=O)C[C@H]1C(=O)N1C[C@@H](OC(c2ccccc2)c2ccccc2)C[C@H]1CNC(=O)c1ccc(/C=C2\SC(=O)NC2=O)cc1 [Compound H-14]	8.2

Further lines, results first:

IC50 [µM]	SMILES
1.3	O=C1NC(=O)C(=Cc2ccc(S(=O)(=O)NC[C@@H]3C[C@H](SC(c4ccccc4)c4ccccc4)CN3C(=O)c3ccccc3)cc2)S1 [Compound B-8]
0.44	O=C1NC(=O)C(=Cc2ccc(S(=O)(=O)NCC3CC(SC(c4ccccc4)(c4ccccc4)c4ccccc4)CN3C(=O)c3ccccc3)cc2)S1 (stereo not shown) [Compound B-9]
1.1	O=C1NC(=O)/C(=C/c2ccc(COC[C@@H]3C[C@H](SC(c4ccccc4)(c4ccccc4)c4ccccc4)CN3C(=O)CCc3ccccc3)cc2)S1 [Compound E-1]
0.85	O=C1NC(=O)/C(=C/c2ccc(CCC[C@@H]3C[C@H](SC(c4ccccc4)(c4ccccc4)c4ccccc4)CN3C(=O)CCc3ccccc3)cc2)S1 [Compound E-3]
7.7	O=C1NC(=O)C(=Cc2ccc(OC[C@@H]3C[C@H](SCc4ccccc4)CN3C(=O)c3ccccc3)cc2)S1 [Compound E-5]
10	O=C1NC(=S)SC1=C[C@@H]1C[C@H](SCc2ccccc2)CN1S(=O)(=O)c1ccc(-c2ccccc2)cc1 [Compound F-2]
9	CC(C)=CCC/C(C)=C/COC1C[C@@H](C(=O)Nc2ccc(/C=C3\SC(=O)NC3=O)cc2)N(C(=O)c2ccccc2)C1 (stereo partly shown) [Compound G-1]
20	O=C1NC(=O)/C(=C/c2ccc(NC(=O)[C@@H]3CC(OCc4ccc(F)cc4)CN3C(=O)c3ccccc3)cc2)S1 (stereo partly shown) [Compound G-2]
17	O=C1NC(=O)/C(=C/c2ccc(NC(=O)[C@@H]3CC(OCc4ccc(Cl)cc4)CN3C(=O)c3ccccc3)cc2)S1 (stereo partly shown) [Compound G-3]
14	O=C1NC(=O)/C(=C/c2ccc(NC(=O)[C@@H]3CC(OCc4ccc(C(F)(F)F)cc4)CN3C(=O)c3ccccc3)cc2)S1 (stereo partly shown) [Compound G-4]
10	Cc1cc(C)c(COC2C[C@@H](C(=O)Nc3ccc(C=C4SC(=O)NC4=O)cc3)N(C(=O)c3ccccc3)C2)c(C)c1 (stereo partly shown) [Compound G-6]
4.2	O=C1NC(=O)/C(=C/c2ccc(NC(=O)[C@@H]3CC(OC(c4ccccc4)c4ccccc4)CN3C(=O)c3ccccc3)cc2)S1 (stereo partly shown) [Compound G-9]
6.7	O=C1NC(=O)/C(=C/c2ccc(C(=O)NC[C@@H]3CC(OC(c4ccccc4)c4ccccc4)CN3C(=O)c3ccccc3)cc2)S1 (stereo partly shown) [Compound H-1]
8.1	O=C1NC(=O)/C(=C/c2ccc(C(=O)NC[C@@H]3CC(OCc4ccc(F)cc4F)CN3S(=O)(=O)Cc3ccc(Br)cc3)cc2)S1 (stereo partly shown) [Compound H-2]
14	Cc1ccc(CS(=O)(=O)N2CC(OCc3ccc(F)cc3F)C[C@H]2CNC(=O)c2ccc(/C=C3\SC(=O)NC3=O)cc2)cc1 (stereo partly shown) [Compound H-3]
26	COC1C[C@@H](CNC(=O)c2ccc(/C=C3\SC(=O)NC3=O)cc2)N(S(=O)(=O)c2ccc(Cc3ccccc3)cc2)C1 (stereo partly shown) [Compound H-4]
6.4	O=C1NC(=O)/C(=C/c2ccc(C(=O)NC[C@@H]3CC(OCc4ccc(F)cc4F)CN3S(=O)(=O)c3ccc(Cc4ccccc4)cc3)cc2)S1 (stereo partly shown) [Compound H-5]
1.7	CC(C)(C)OC(=O)N1CC(OCc2ccc(F)cc2F)C[C@H]1CNC(=O)c1ccc(/C=C2\SC(=O)NC2=O)cc1 (stereo partly shown) [Compound H-6]
11	CC(C)(C)OC(=O)N1CC(OCc2ccc(F)cc2F)C[C@H]1CNC(=O)c1ccc(/C=C2\SC(=S)NC2=O)cc1 (stereo partly shown) [Compound H-7]
6.2	O=C1NC(=O)/C(=C/c2ccc(C(=O)NC[C@@H]3C[C@H](OC(c4ccccc4)c4ccccc4)CN3C(=O)c3cccc(OCN4C(=O)c5ccccc5S4(=O)=O)c3)cc2)S1 [Compound H-12]
4.4	O=C1NC(=O)/C(=C/c2ccc(C(=O)NC[C@@H]3C[C@H](OC(c4ccccc4)c4ccccc4)CN3C(=O)c3ccc(OCN4C(=O)c5ccccc5S4(=O)=O)cc3)cc2)S1 [Compound H-13]
11	CC(=O)Oc1ccc(OC(C)=O)c(CCCCCCC(=O)N2C[C@@H](OC(c3ccccc3)c3ccccc3)C[C@H]2CNC(=O)c2ccc(/C=C3\SC(=O)NC3=O)cc2)c1 [Compound H-15]
8.6	O=C1NC(=O)/C(=C/c2ccc(S(=O)(=O)NC[C@@H]3CC(OCc4ccc(F)cc4F)CN3S(=O)(=O)Cc3ccc(Br)cc3)cc2)S1 (stereo partly shown) [Compound H-19]
6.6	O=C1NC(=O)/C(=C/c2ccc(S(=O)(=O)NC[C@@H]3CC(OCc4ccc(F)cc4F)CN3S(=O)(=O)c3ccc(Cc4ccccc4)cc3)cc2)S1 (stereo partly shown) [Compound H-20]
